The molecules below were run against T1, human GlyT1c transporter (Homo sapiens, UniProt P48067) (assay: Radioligand binding assay using recombinant CHO cell membranes expressing human GlyT1). Conditions: radioligand binding to human GlyT1c transporter-expressing membranes.
T1 construct: expressed in transfected cells; host or cells: CHO cells (recombinant; line hGlyT1c_5_CHO is named for the uptake assay)
T1 sequence (P48067 1-706): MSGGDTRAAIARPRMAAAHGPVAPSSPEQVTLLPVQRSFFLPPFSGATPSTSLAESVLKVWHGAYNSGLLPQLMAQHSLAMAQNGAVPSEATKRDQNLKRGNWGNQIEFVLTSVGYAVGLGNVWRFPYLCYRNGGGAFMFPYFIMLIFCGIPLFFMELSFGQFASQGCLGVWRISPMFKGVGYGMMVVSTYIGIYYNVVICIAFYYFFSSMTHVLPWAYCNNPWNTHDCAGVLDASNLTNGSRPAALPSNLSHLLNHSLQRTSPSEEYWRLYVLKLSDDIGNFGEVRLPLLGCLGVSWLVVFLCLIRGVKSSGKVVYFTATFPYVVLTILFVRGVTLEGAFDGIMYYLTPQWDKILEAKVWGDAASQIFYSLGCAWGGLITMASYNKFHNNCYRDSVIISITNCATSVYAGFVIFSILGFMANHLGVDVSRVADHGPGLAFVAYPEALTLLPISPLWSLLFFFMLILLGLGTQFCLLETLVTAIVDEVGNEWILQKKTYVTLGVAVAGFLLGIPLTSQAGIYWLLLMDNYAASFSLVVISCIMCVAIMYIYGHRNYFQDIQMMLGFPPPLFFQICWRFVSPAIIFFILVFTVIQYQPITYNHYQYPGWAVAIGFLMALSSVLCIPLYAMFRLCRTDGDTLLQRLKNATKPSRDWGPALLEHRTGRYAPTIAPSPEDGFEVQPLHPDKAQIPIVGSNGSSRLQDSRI
From the text: 2. Radioligand binding assays using recombinant CHO cell membranes expressing human GlyT1: […]
Cn1cnc(S(=O)(=O)N2C[C@@H](Nc3cc(C(F)(F)F)ncn3)[C@H](c3ccccc3)C2)c1 (relative stereo) [Example 240, N-{trans-1-[(1-methyl-1H-imidazol-4-yl)sulfonyl]-4-phenylpyrrolidin-3-yl} -6-(trifluoromethyl)pyrimidin-4-amine] showed a Ki of at most 100 nM. Cn1cnc(S(=O)(=O)N2C[C@@H]([C@@H]3CCCOC3)[C@H](Nc3ccc(Cl)c(C(F)(F)F)c3)C2)c1 (relative stereo) [Example 792, Trans-N-[4-chloro-3-(trifluoromethyl)phenyl]-1-[(1-methyl-1H-imidazol-4-yl)sulfonyl]-4-[(3S)-tetrahydro-2H-pyran-3-yl]pyrrolidin-3-amine] showed a Ki of at most 10000 nM. Work on Cn1cnc(S(=O)(=O)N2C[C@H](NC(=O)Oc3ccccc3)[C@@H](c3ccc(F)cc3)C2)c1 [Example 693, phenyl {(3R,4S)-4-(4-fluorophenyl)-1-[(1-methyl-1H-imidazol-4-yl)sulfonyl]pyrrolidin-3-yl}carbamate] yielded a Ki of at most 10000 nM. In the case of Cn1cnc(S(=O)(=O)N2C[C@H](NC(=O)COc3ccc(F)cc3)[C@@H](c3ccc(F)cc3)C2)c1 [Example 644, 2-(4-fluorophenoxy)-N-{(3R,4S)-4-(4-fluorophenyl)-1-[(1-methyl-1H-imidazol-4-yl)sulfonyl]pyrrolidin-3-yl}acetamide], the Ki is reported as at most 10000 nM. Cn1cnc(S(=O)(=O)N2C[C@@H](NC(=O)c3cccc(C(F)(F)F)c3Cl)[C@H](c3cccc(F)c3)C2)c1 (relative stereo) [Example 55, 2-chloro-N-{trans-4-(3-fluorophenyl)-1-[(1-methyl-1H-imidazol-4-yl)sulfonyl]pyrrolidin-3-yl}-3-(trifluoromethyl)benzamide] gave a Ki of at most 1000 nM. Work on COCCNC(=O)[C@@H]1CN(S(=O)(=O)c2cn(C)cn2)C[C@H]1c1ccc(F)cc1 [Example 579, (3S,4R)-4-(4-fluorophenyl)-N-(2-methoxyethyl)-1-[(1-methyl-1H-imidazol-4-yl)sulfonyl]pyrrolidine-3-carboxamide] yielded a Ki of at most 10000 nM. Cn1cnc(S(=O)(=O)N2C[C@@H](COc3cccc(C(F)(F)F)c3Cl)[C@H](c3ccc(F)cc3)C2)c1 (relative stereo) [Example 250, 4-{[trans-3-{[2-chloro-3-(trifluoromethyl)phenoxy]methyl}-4-(4-fluorophenyl)pyrrolidin-1-yl]sulfonyl}-1-methyl-1H-imidazole] showed a Ki of at most 10000 nM. Cn1cnc(S(=O)(=O)N2C[C@@H](Nc3ccc(F)c(F)c3)[C@H](c3ccccc3)C2)c1 (relative stereo) [Example 216, trans-N-(3,4-difluorophenyl)-1-[(1-methyl-1H-imidazol-4-yl)sulfonyl]-4-phenylpyrrolidin-3-amine] gave a Ki of at most 1000 nM. Molecule Cn1cnc(S(=O)(=O)N2C[C@@H](Nc3ccc(F)c(OC(F)(F)F)c3)[C@H](c3ncccc3F)C2)c1 (relative stereo) [Example 768, Trans-4-(3-fluoropyridin-2-yl)-N-[4-fluoro-3-(trifluoromethoxy)phenyl]-1-[(1-methyl-1H-imidazol-4-yl)sulfonyl]pyrrolidin-3-amine] has a Ki of at most 100 nM. O=C1Cc2cc(S(=O)(=O)N3CC(Nc4ccc(F)c(F)c4)C(c4ccccc4)C3)ccc2N1 (stereo not shown) [Example 507, 5-({3-[(3,4-difluorophenyl)amino]-4-phenylpyrrolidin-1-yl}sulfonyl)-1,3-dihydro-2H-indol-2-one] gave a Ki of at most 10000 nM. For Cn1cnc(S(=O)(=O)N2C[C@@H](COc3cccc(C(F)(F)F)c3)[C@H](c3ccc(F)cc3)C2)c1 (relative stereo) [Example 293, 4-{[trans-3-(4-fluorophenyl)-4-{[3-(trifluoromethyl)phenoxy]methyl}pyrrolidin-1-yl]sulfonyl}-1-methyl-1H-imidazole], the Ki was at most 100 nM. With Cn1cnc(S(=O)(=O)N2C[C@@H](Oc3cc(C(F)(F)F)ccn3)[C@H](c3ccc(F)cc3)C2)c1 (relative stereo) [Example 379, 2-({trans-4-(4-fluorophenyl)-1-[(1-methyl-1H-imidazol-4-yl)sulfonyl]pyrrolidin-3-yl}oxy)-4-(trifluoromethyl)pyridine] the Ki was at most 100 nM. Cn1cnc(S(=O)(=O)N2C[C@H](Nc3ccc4c(c3)CCCO4)[C@@H](c3ccccc3)C2)c1 [Example 658, (3R,4S)-N-(3,4-dihydro-2H-chromen-6-yl)-1-[(1-methyl-1H-imidazol-4-yl)sulfonyl]-4-phenylpyrrolidin-3-amine] showed a Ki of at most 1000 nM. Molecule Cn1cnc(S(=O)(=O)N2C[C@H](Nc3cc(-c4cccc(F)c4)ncn3)[C@@H](c3ccc(F)cc3)C2)c1 [Example 727, 6-(3-fluorophenyl)-N-{(3R,4S)-4-(4-fluorophenyl)-1-[(1-methyl-1H-imidazol-4-yl)sulfonyl]pyrrolidin-3-yl}pyrimidin-4-amine] has a Ki of at most 10 nM. With CC(C)c1cc(N[C@H]2CN(S(=O)(=O)c3cn(C)cn3)C[C@@H]2c2ccc(F)cc2)ncn1 [Example 614, N-{(3R,4S)-4-(4-fluorophenyl)-1-[(1-methyl-1H-imidazol-4-yl)sulfonyl]pyrrolidin-3-yl}-6-(propan-2-yl)pyrimidin-4-amine] the Ki was at most 1000 nM. In the case of Cn1cnc(S(=O)(=O)N2C[C@H](NC(=O)Nc3ccccc3Cl)[C@@H](c3ccc(F)cc3)C2)c1 [Example 694, 1-(2-chlorophenyl)-3-{(3R,4S)-4-(4-fluorophenyl)-1-[(1-methyl-1H-imidazol-4-yl)sulfonyl]pyrrolidin-3-yl}urea], the Ki is reported as at most 1000 nM. With Cn1cnc(S(=O)(=O)N2C[C@H](NC(=O)CCCC(F)(F)F)[C@@H](c3ccc(F)cc3)C2)c1 [Example 698, 5,5,5-trifluoro-N-{(3R,4S)-4-(4-fluorophenyl)-1-[(1-methyl-1H-imidazol-4-yl)sulfonyl]pyrrolidin-3-yl}pentanamide] the Ki was at most 1000 nM. Cn1cnc(S(=O)(=O)N2C[C@@H](C(=O)Nc3cccc(C(F)(F)F)c3)[C@H](c3ccc(F)cc3)C2)c1 (relative stereo) [Example 317, Trans-4-(4-fluorophenyl)-1-[(1-methyl-1H-imidazol-4-yl)sulfonyl]-N-[3-(trifluoromethyl)phenyl]pyrrolidine-3-carboxamide] gave a Ki of at most 1000 nM. Cn1cnc(S(=O)(=O)N2C[C@@H](C(=O)NCc3cccc(Cl)c3)[C@H](c3ccc(F)cc3)C2)c1 (relative stereo) [Example 628, Trans-N-(3-chlorobenzyl)-4-(4-fluorophenyl)-1-[(1-methyl-1H-imidazol-4-yl)sulfonyl]pyrrolidine-3-carboxamide] showed a Ki of at most 10 nM. Cn1cnc(S(=O)(=O)N2C[C@@H](Nc3nccc(C(F)(F)F)n3)[C@H](c3ccccc3)C2)c1 (relative stereo) [Example 227, N-{trans-1-[(1-methyl-1H-imidazol-4-yl)sulfonyl]-4-phenylpyrrolidin-3-yl}-4-(trifluoromethyl)pyrimidin-2-amine] gave a Ki of at most 10000 nM. For Cc1cccc(-c2cc(N[C@H]3CN(S(=O)(=O)c4cn(C)cn4)C[C@@H]3c3ccc(F)cc3)ncn2)c1 [Example 724, N-{(3R,4S)-4-(4-fluorophenyl)-1-[(1-methyl-1H-imidazol-4-yl)sulfonyl]pyrrolidin-3-yl}-6-(3-methylphenyl)pyrimidin-4-amine], the Ki was at most 100 nM. Cn1cnc(S(=O)(=O)N2C[C@@H](Nc3cc(F)cc(C(F)(F)F)c3)[C@H](c3ccc(F)cc3)C2)c1 (relative stereo) [Example 168, trans-4-(4-fluorophenyl)-N-[3-fluoro-5-(trifluoromethyl)phenyl]-1-[(1-methyl-1H-imidazol-4-yl)sulfonyl]pyrrolidin-3-amine] gave a Ki of at most 100 nM.

— patent EP2970215B1, “PYRROLIDINE DERIVATIVES, PHARMACEUTICAL COMPOSITIONS CONTAINING THEM, AND THEIR USE IN THERAPY” (AbbVie Deutschland GmbH & Co. KG, priority 2013, dated 2014)
